Tests used:
SARS-CoV-2 D614G strain = type: cell-based
IAV WSN = type: cell-based, influenza A virus

SMILES	reduction of SARS-CoV-2 infection (SARS-CoV-2 D614G strain)	reduction in viral titre after tenth passage (IAV WSN)	blocked SARS-CoV-2 infections (SARS-CoV-2 D614G strain)
O=C(Nc1cc(C(F)(F)F)cc(C(F)(F)F)c1)Nc1cc(C(F)(F)F)cc(C(F)(F)F)c1 [DPUD-1, 1,3-bis(3,5-bis(trifluoromethyl)phenyl)urea]	greater than 99%	> 5 log	–
O=C(Nc1ccccc1)Nc1ccccc1 [DPU, 1,3-diphenylurea, reference compound]	–	–	did not show any inhibitory effect
